Target: T1, kinase-domain human PKCι (Homo sapiens, UniProt P41743)
T1 construct: Recombinant, kinase-domain human PKCι is expressed and purified in-house; made in house
T1 sequence (P41743 254-522 limits assumed): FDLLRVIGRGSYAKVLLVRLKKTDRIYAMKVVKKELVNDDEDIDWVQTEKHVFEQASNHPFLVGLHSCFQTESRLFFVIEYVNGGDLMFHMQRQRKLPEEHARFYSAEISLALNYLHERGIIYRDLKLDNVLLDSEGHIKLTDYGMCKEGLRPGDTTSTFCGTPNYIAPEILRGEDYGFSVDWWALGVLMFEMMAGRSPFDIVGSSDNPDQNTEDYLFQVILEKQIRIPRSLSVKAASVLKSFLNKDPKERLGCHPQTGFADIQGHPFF
Assay: PKCι IC50 IMAP fluorescence polarisation assay, kinase-domain enzyme
Format: biochemical
Settings: kinase domain PKCi at 2 μM ATP; read-out: IC50 in IMAP assay against kinase domain PKCi (Activity)
Method: Assays are based on the ability of PKCι to phosphorylate a commercially available peptide substrate in vitro. […] Recombinant, full-length human PKCι expressed in Sf21 insect cells is also commercially available. Recombinant, kinase-domain human PKCι is expressed and purified in-house.
The procedure below explains how dose response curves for inhibitors of PKCι are obtained.
Compounds to be tested are dissolved in 100% DMSO. […] 1 μl is plated into 384 well black low-binding flat bottomed assay plates which are used immediately. Dilutions and additions of compound to assay plates are carried out using Matrix WellMate® and Matrix PlateMate® Plus liquid handling systems.
The final concentration of peptide substrate in the assay is 100 nM. […] Relevant controls are included, namely no compound and no enzyme. […] The reaction is allowed to incubate for 60 minutes at room temperature, before the reaction is stopped and developed by the addition of 20 μl IMAP™ development reagent (Molecular Devices). IMAP development reagent consists of 0.25% (v/v) IMAP progressive binding reagent, 17% (v/v) IMAP progressive binding buffer A and 3% (v/v) IMAP progressive binding buffer B. The plates are then incubated for 2 hours at room temperature before being read using an appropriate plate reader, for example a Molecular Devices HT Analyst or a BMG Pherastar.

IC50 [µM]	SMILES
1 to 10	CN(C)CCNc1nc(-c2ccncc2)nc2sc3c(c12)CCCC3 [compound 1, N,N-dimethyl-N′-(2-pyridin-4-yl-5,6,7,8-tetrahydro-benzo[4,5]thieno[2,3-d]pyrimidin-4-yl)-ethane-1,2-diamine]
0.1 to 1	C[C@@H](N)CNc1nc(-c2ccncc2)nc2sc3c(c12)CCCC3 [compound 2, (R)-N*1*-(2-Pyridin-4-yl-5,6,7,8-tetrahydro-benzo[4,5]thieno[2,3-d]pyrimidin-4-yl)-propane-1,2-diamine]
0.1 to 1	CN1CCCN(c2nc(-c3ccncc3)nc3sc4c(c23)CCCC4)CC1 [compound 4, 4-(4-Methyl-[1,4]diazepan-1-yl)-2-pyridin-4-yl-5,6,7,8-tetrahydro-benzo[4,5]thieno[2,3-d]pyrimidine]
< 0.1	C[C@H](N)CNc1nc(-c2ccncc2)nc2sc3c(c12)CCCC3 [compound 5, (S)-N*1*-(2-Pyridin-4-yl-5,6,7,8-tetrahydro-benzo[4,5]thieno[2,3-d]pyrimidin-4-yl)-propane-1,2-diamine]
1 to 10	CSCC[C@@H](N)CNc1nc(-c2ccncc2)nc2sc3c(c12)CCCC3 [compound 6, (R)-4-Methylsulfanyl-N*1*- (2-pyridin-4-yl-5,6,7,8-tetrahydro-benzo[4,5]thieno[2,3-d]pyrimidin-4-yl)-butane-1,2-diamine]
1 to 10	N[C@@H](CNc1nc(-c2ccncc2)nc2sc3c(c12)CCCC3)Cc1c[nH]c2ccccc12 [compound 7, (R)-3-(1H-Indol-3-yl)-N*1*- (2-pyridin-4-yl-5,6,7,8-tetrahydro-benzo[4,5]thieno[2,3-d]pyrimidin-4-yl)-propane-1,2-diamine]
0.1 to 1	C[C@H]1CN(c2nc(-c3ccncc3)nc3sc4c(c23)CCCC4)CCN1 [compound 8, 4-((S)-3-Methyl-piperazin-1-yl)-2-pyridin-4-yl-5,6,7,8-tetrahydro-benzo[4,5]thieno[2,3-d]pyrimidine]
1 to 10	C[C@@H]1CN(c2nc(-c3ccncc3)nc3sc4c(c23)CCCC4)C[C@H](C)N1 [compound 9, 4-((3R,5S)-3,5-Dimethyl-piperazin-1-yl)-2-pyridin-4-yl-5,6,7,8-tetrahydro-benzo[4,5]thieno[2,3-d]pyrimidine]
1 to 10	C[C@@H]1CN[C@@H](C)CN1c1nc(-c2ccncc2)nc2sc3c(c12)CCCC3 [compound 10, 4-((2R,5S)-2,5-Dimethyl-piperazin-1-yl)-2-pyridin-4-yl-5,6,7,8-tetrahydro-benzo[4,5]thieno[2,3-d]pyrimidine]
10 to 40	N[C@H]1C[C@@H]1Nc1nc(-c2ccncc2)nc2sc3c(c12)CCCC3 [compound 11, (1S,2S)-N-(2-Pyridin-4-yl-5,6,7,8-tetrahydro-benzo[4,5]thieno[2,3-d]pyrimidin-4-yl)-cyclopropane-1,2-diamine]
0.1 to 1	CNCCNc1nc(-c2ccncc2)nc2sc3c(c12)CCCC3 [compound 13, N-Methyl-N′-(2-pyridin-4-yl-5,6,7,8-tetrahydro-benzo[4,5]thieno[2,3-d]pyrimidin-4-yl)-ethane-1,2-diamine]
0.1 to 1	c1cc(-c2nc(N3CCCNCC3)c3c4c(sc3n2)CCCC4)ccn1 [compound 14, 4-[1,4]Diazepan-1-yl-2-pyridin-4-yl-5,6,7,8-tetrahydro-benzo[4,5]thieno[2,3-d]pyrimidine]
0.1 to 1	CN(CCN)c1nc(-c2ccncc2)nc2sc3c(c12)CCCC3 [compound 15, N*1*-Methyl-N*1*-(2-pyridin-4-yl-5,6,7,8-tetrahydro-benzo[4,5]thieno[2,3-d]pyrimidin-4-yl)-ethane-1,2-diamine]
1 to 10	CC(C)C[C@@H](N)CNc1nc(-c2ccncc2)nc2sc3c(c12)CCCC3 [compound 16, (R)-4-Methyl-N*1*-(2-pyridin-4-yl-5,6,7,8-tetrahydro-benzo[4,5]thieno[2,3-d]pyrimidin-4-yl)-pentane-1,2-diamine]

Source: US10183950B2, “Thienopyrimidine inhibitors of atypical protein kinase C” (Cancer Research Technology Limited, priority 2011, dated 2019)
